Reference: patent publication US20070092577A1, “Dietary calcium for reducing the production of reactive oxygen species” (University of Tennessee Research Foundation, priority 2005, published 2007)

Assays:
MIF [1] = assay: MIF expression in human adipocytes; format: cell-based; conditions: calcitriol 10 nmol/L, 48 hours; p=0.001
Text: (§1) Cell culture: Human preadipocytes used in this study were supplied by Zen-Bio (Research Triangle, N.C.). Preadipocytes were inoculated in DMEM/Ham's F-10 medium (DMEM-F10) (1:1, vol/vol) containing 10% FBS, 15 mmol/L HEPES, and antibiotics at a density of 30,000 cells/cm^2. Confluent monolayers of preadipocytes were induced to differentiate with a standard differentiation medium consisting of DMEM-F 10 (1:1, vol/vol) medium supplemented with 15 mmol/L HEPES, 3% FBS, 33 μmol/L biotin, 17 μmol/L pantothenate, 100 nmol/L insulin, […] methylisobutylxanthine, 1 μmol/L dexamethasone, 1 μmol/L BRL49653, and antibiotics. […]
(§2) Cells were washed with fresh adipocyte medium, re-fed with medium containing the indicated treatments, and incubated at 37° C. in 5% CO2 for 48 hours before analysis. Cell viability was measured via trypan blue exclusion.
(§3) Adipocyte and muscle 18s, CD14, TNFα, MIP, M-CSF, IL-6 and MCP-1 were quantitatively measured using a Smart Cycler Real Time PCR System (Cepheid, Sunnyvale, Calif.) with a TaqMan 1000 Core Reagent Kit (Applied Biosystems, Branchburg, N.J.). […] Reactions of quantitative RT-PCR for standards and unknown samples were also performed according to the instructions of Smart Cycler System (Cepheid, Sunnyvale, Calif.) and TaqMan Real Time PCR Core Kit (Applied Biosystems, Branchburg, N.J.). […]

TNFα = TNFα expression in RAW 264 macrophages; format: cell-based
Experimental: (§4) RAW 264 macrophages and 3T3-L1 preadipocytes (American Type Culture Collection) were incubated at a density of 8000 cells/cm2 (10 cm2 dish) and grown in Dulbecco's modified Eagle's medium (DMEM) containing 10% FBS and antibiotics (adipocyte medium) at 37° C. in 5% CO2 in air. Confluent 3T3-L1 preadipocytes were induced to differentiate with a standard differentiation medium consisting of DMEM-F10 (1:1, vol/vol) medium supplemented with 1% FBS, 1 μM dexamethasone, IBMX (0.5 mM) and antibiotics (1% Penicillin-Streptomycin). Preadipocytes were maintained in this differentiation medium for 3 days and subsequently cultured in adipocyte medium. Cultures were re-fed every 2-3 days to allow 90% cells to reach fully differentiation for 3T3-L1 adipocytes or grow to a confluence for RAW 264 before conducting chemical treatment.
Human adipocytes (Zen-Bio, Inc.), 3T3-L1 adipocytes, RAW264 macrophages were obtained and co-cultured by using transwell inserts with 0.4 μm porous membranes (Corning) to separate adipocytes and macrophages. All data are expressed as mean±SEM. Data were evaluated for statistical significance by analysis of one-way or two-way variance (ANOVA; means with different letter differ, p<0.05).
Adipocyte and muscle 18s, CD14, TNFα, MIP, M-CSF, IL-6 and MCP-1 were quantitatively measured using a Smart Cycler Real Time PCR System (Cepheid, Sunnyvale, Calif.) with a TaqMan 1000 Core Reagent Kit (Applied Biosystems, Branchburg, N.J.). The primers and probe sets were obtained from Applied Biosystems TaqMan® Assays-on-Demand™ Gene Expression primers and probe set collection according to manufacture's instruction. […] Reactions of quantitative RT-PCR for standards and unknown samples were also performed according to the instructions of Smart Cycler System (Cepheid, Sunnyvale, Calif.) and TaqMan Real Time PCR Core Kit (Applied Biosystems, Branchburg, N.J.). The mRNA quantitation for each sample was further normalized using the corresponding 18s quantitation.

CD14 [2] = assay: CD14 expression in human adipocytes; format: cell-based; conditions: calcitriol 10 nmol/L, 48 hours; p=0.008
Text: as §1, §2, §3

MIF [3] = assay: MIF expression in mouse (3T3-L1) adipocytes; format: cell-based; conditions: calcitriol 10 nmol/L, 48 hours
Experimental: as §4, with “Cultures were re-fed every 2-3 days to allow 90% cells to reach fully differentiation for 3T3-L1 adipocytes or grow to a confluence for RAW 264 before conducting chemical treatment.” left out
as §2, §3

IL-6 = IL-6 expression in differentiated Zen-bio human adipocytes; format: cell-based; conditions: 10 nmol/L, 48 h; p=0.004
Experimental: (§5) Human pre-adipocytes used in this study were supplied by Zen-Bio (Research Triangle, N.C.). […] The cells are isolated from the stromal vascular fraction of human subcutaneous adipose tissue and differentiated in vitro as follows: […] Preadipocytes were maintained in this differentiation medium for 3 days and subsequently cultured in adipocyte medium in which BRL49653 and MIX were omitted. Cultures were re-fed every 2-3 days till fully differentiated. Cells were incubated in serum free medium overnight before chemical treatment. Chemicals were freshly diluted in adipocyte medium before treatment. […] Cell viability was measured via trypan blue exclusion. Adipocyte and muscle 18s, TNFα, IL-6, IL-8, IL-15 and adiponectin were quantitatively measured using a smart cycler real-time PCR system (Cepheid, Sunnyvale, Calif.) with a TaqMan 1000 Core Reagent Kit (Applied Biosystems, Branchburg, N.J.). […] Reactions of quantitative RT-PCR for standards and unknown samples were also performed according to the instructions of Smart Cycler System (Cepheid, Sunnyvale, Calif.) and TaqMan Real Time PCR Core Kit (Applied Biosystems, Branchburg, N.J.). The mRNA quantitation for each sample was further normalized using the corresponding 18s quantitation.

MIP = MIP expression in 3T3-L1 adipocytes; format: cell-based, mouse; conditions: calcitriol 10 nmol/L, 48 hours
Experimental: as §4, with “Cultures were re-fed every 2-3 days to allow 90% cells to reach fully differentiation for 3T3-L1 adipocytes or grow to a confluence for RAW 264 before conducting chemical treatment.” left out
as §2, §3

CD14 [4] = assay: CD14 expression in mouse (3T3-L1) adipocytes; format: cell-based; conditions: calcitriol 10 nmol/L, 48 hours
Experimental: as §4, with “Cultures were re-fed every 2-3 days to allow 90% cells to reach fully differentiation for 3T3-L1 adipocytes or grow to a confluence for RAW 264 before conducting chemical treatment.” left out
as §2, §3

MCP-1 = MCP-1 expression in 3T3-L1 adipocytes; format: cell-based, mouse; conditions: calcitriol 10 nmol/L, 48 hours
Experimental: as §4, with “Cultures were re-fed every 2-3 days to allow 90% cells to reach fully differentiation for 3T3-L1 adipocytes or grow to a confluence for RAW 264 before conducting chemical treatment.” left out
as §2, §3

IL-8 = IL-8 expression in differentiated Zen-bio human adipocytes; format: cell-based; conditions: 10 nmol/L, 48 h; p<0.001
Experimental: as §5

IL-15 = IL-15 expression in differentiated Zen-bio human adipocytes; format: cell-based; conditions: 10 nmol/L 1α, 25-(OH)2-D3 or 10 μmol/L nifedipine, 48 h; p=0.473
Experimental: as §5

M-CSF = M-CSF expression in 3T3-L1 adipocytes; format: cell-based, mouse; conditions: calcitriol 10 nmol/L, 48 hours
Experimental: as §4, with “Cultures were re-fed every 2-3 days to allow 90% cells to reach fully differentiation for 3T3-L1 adipocytes or grow to a confluence for RAW 264 before conducting chemical treatment.” left out
Cell viability was measured via trypan blue exclusion.
Adipocyte and muscle 18s, CD14, TNFα, MIP, M-CSF, IL-6 and MCP-1 were quantitatively measured using a Smart Cycler Real Time PCR System (Cepheid, Sunnyvale, Calif.) with a TaqMan 1000 Core Reagent Kit (Applied Biosystems, Branchburg, N.J.). […] Reactions of quantitative RT-PCR for standards and unknown samples were also performed according to the instructions of Smart Cycler System (Cepheid, Sunnyvale, Calif.) and TaqMan Real Time PCR Core Kit (Applied Biosystems, Branchburg, N.J.). The mRNA quantitation for each sample was further normalized using the corresponding 18s quantitation.

Q: Which “increase of MIF expression” value (MIF [1]) does the source give for `C=C1/C(=C\C=C2/CCC[C@]3(C)[C@@H]([C@H](C)CCCC(C)(C)O)CC[C@@H]23)C[C@@H](O)C[C@@H]1O` [calcitriol, 1, 25-Dihydroxyvitamin D] here?
A: 59%

Q: What about the “effect on TNFα expression in macrophages in co-culture” value (TNFα; co-culture with differentiated 3T3-L1 adipocytes) of the same compound?
A: further enhanced

Q: And the “stimulation of TNFα expression” value (TNFα; macrophages cultured alone, calcitriol 10 nmol/L, 48 hours)?
A: 91%

Q: What about the “increase of CD14 expression” value (CD14 [2]) of the same compound?
A: 33%

Q: And the “increase of MIF expression” value (MIF [3])?
A: 50%

Q: And the “stimulation of IL-6 expression” value (IL-6)?
A: 53%

Q: And the “effect on MIP expression” value (MIP)?
A: markedly stimulate

Q: And the “increase of CD14 expression” value (CD14 [4])?
A: 45%

Q: And the “effect on MCP-1 expression” value (MCP-1)?
A: markedly stimulate

Q: What about the “stimulation of IL-8 expression” value (IL-8) of the same compound?
A: 49%

Q: And the “effect on IL-15 expression” value (IL-15)?
A: no effect

Q: What about the “effect on M-CSF expression” value (M-CSF) of the same compound?
A: markedly stimulate
